Results as given in ChEMBL document CHEMBL3808275, “Design, synthesis and SARs of novel salicylanilides as potent inhibitors of RANKL-induced osteoclastogenesis and bone resorption” (Eur J Med Chem, 2016).

Experiments:
[1] = Cytotoxicity against mouse RAW264.7 cells assessed as survival rate at 2.5 uM after 24 hrs by MTT assay; type: cell-based; conditions: read-out: Survival
[2] = Cytotoxicity against mouse RAW264.7 cells assessed as reduction in cell viability after 24 hrs by MTT assay; type: cell-based
RAW264.7 [3] = experiment: Cytotoxicity against mouse RAW264.7 cells assessed as reduction in cell viability at 5 uM after 24 hrs by MTT assay; type: cell-based; conditions: raw264.7, 24 h
RAW264.7 [4] = experiment: Inhibition of RANKL-induced osteoclast differentiation in mouse RAW264.7 cells assessed as TRAP-positive multinucleated cells level at 2.5 uM incubated with compound in presence of RANKL for 4 days by TRAP staining based light microscopic analysis relative to RANKL alone; type: functional; parameters: scale not given: the % may be the effect or the level left

Compound | viability at 24 h, 2.5 µM [1] [%] | CC50 at 24 h [2] [µM] | Activity (RAW264.7 [3]) | Activity (RAW264.7 [4]) [%]
O=c1oc2ccc(Cl)cc2c(=O)n1-c1ccc(F)cc1F | 116 | 13.4 | Toxic | 91.9
O=C1c2cc(Br)ccc2Oc2cc([N+](=O)[O-])ccc2N1c1ccc(I)cc1F | 93.2 | > 40 | Toxic | 78.1
O=C1c2cc(Br)ccc2Oc2cc([N+](=O)[O-])ccc2N1c1ccc(Cl)cc1F | 102 | > 40 | Toxic | 67.1
O=C(Nc1ccc(I)cc1F)c1cc(I)ccc1O | 94.2 | 6 | Toxic | 35.1
O=C(O)c1cc(F)ccc1O | 102 | > 40 | Toxic | 90.9
O=c1oc2ccccc2c(=O)n1-c1ccc(I)cc1F | 105 | 24.5 | Toxic | 66.7
O=C(O)c1cc(I)ccc1O | 98.9 | > 40 | Toxic | 90.5
O=C(Nc1ccc(F)cc1F)c1cc(I)ccc1O | 103 | 13.7 | Toxic | 80.5
O=C1c2cc(I)ccc2Oc2cc([N+](=O)[O-])ccc2N1c1ccc(I)cc1F | 98.9 | > 40 | Toxic | 55.7
O=C(Nc1ccc(Cl)cc1F)c1cc(Br)ccc1O | 103 | 9.2 | Toxic | 39.6
O=C(O)c1cc(Cl)ccc1O [5-CHLOROSALICYLIC ACID] | 113 | > 40 | Toxic | 96.6
O=C(Nc1ccc(Cl)cc1F)c1cc(F)ccc1O | 99.5 | 7.7 | Toxic | 27.1
O=c1oc2ccc(Cl)cc2c(=O)n1-c1ccc(Cl)cc1F | 99.4 | 6.8 | Toxic | 32.8
O=C1c2cc(Cl)ccc2Oc2cc([N+](=O)[O-])ccc2N1c1ccc(F)cc1F | 99.6 | > 40 | Toxic | 70.6
O=C(Nc1ccc(F)cc1F)c1cc(F)ccc1O | 99.2 | 15.7 | Toxic | 93.7
O=C1c2cc(F)ccc2Oc2cc([N+](=O)[O-])ccc2N1c1ccc(F)cc1F | 90.1 | > 40 | Toxic | 92.4
O=C1c2cc(F)ccc2Oc2cc([N+](=O)[O-])ccc2N1c1ccc(Cl)cc1F | 91.2 | > 40 | Toxic | 93.1
O=c1oc2ccc(F)cc2c(=O)n1-c1ccc(Br)cc1F | 103 | 7.2 | Toxic | 25.5
O=C(Nc1ccc(Br)cc1F)c1cc(Br)ccc1O | 99.5 | 7.8 | Toxic | 33.1
O=c1oc2ccc(I)cc2c(=O)n1-c1ccc(Cl)cc1F | 117 | 8.9 | Toxic | 38
O=c1oc2ccccc2c(=O)n1-c1ccc(Cl)cc1F | 92.5 | 24.4 | Toxic | 71.1
O=C1c2cc(I)ccc2Oc2cc([N+](=O)[O-])ccc2N1c1ccc(Cl)cc1F | 94.9 | > 40 | Toxic | 75.2
O=c1oc2ccc(Br)cc2c(=O)n1-c1ccc(Br)cc1F | 103 | 7.2 | Toxic | 54.9
O=c1oc2ccc(Cl)cc2c(=O)n1-c1ccc(Br)cc1F | 114 | 8.1 | Toxic | 45.5
O=C1c2cc(Cl)ccc2Oc2cc([N+](=O)[O-])ccc2N1c1ccc(I)cc1F | 89.3 | > 40 | Toxic | 73.8
O=C1c2cc(Br)ccc2Oc2cc([N+](=O)[O-])ccc2N1c1ccc(Br)cc1F | 88.7 | > 40 | Toxic | 84.2
O=C1c2cc(I)ccc2Oc2cc([N+](=O)[O-])ccc2N1c1ccc(Br)cc1F | 93.4 | > 40 | Toxic | 84.8
